Laboratory results: patent US10870647B2, “Imidazopyridine derivative, method for preparing same, and pharmaceutical composition containing same as active ingredient for preventing or treating cancer” (DAEGU-GYEONGBUK MEDICAL INNOVATION FOUNDATION, priority 2016, dated 2020)

Tests used:
GIST-T1/816 = experiment: Cancer cell proliferation inhibition, cell viability after 72 hours; format: cell-based; settings: Homo sapiens, GISTT1, imatinib-resistant
In short: (§1)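 GIST-T1/816, GIST-430 and GIST-430/654 seeded at 2×10^4/100 μl; GIST-R3 (patient-derived, imatinib/sunitinib-resistant) likewise. Compounds added next day at 8 concentrations; viability after 72 hours by EZ-cytox or CellTiter-Glo, as % of vehicle-treated cells, IC50 from curves; two independent experiments.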

GIST430 = experiment: as above; format: cell-based; settings: Homo sapiens, imatinib-sensitive
In short: as §1

GIST430/654 = experiment: as above; format: cell-based; settings: GIST-430/654, imatinib-resistant
In short: as §1

GIST-T1 = experiment: as above; format: cell-based; settings: Homo sapiens, GISTT1, imatinib-sensitive
A375 = experiment: Cancer cell proliferation inhibition, CCK-8, 72 hours; format: cell-based; settings: Homo sapiens, A-375, 72 h
In short: (§2)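 A375 cells (2×10^3/well) attached overnight, then received 9 three-fold dilutions (0.0015-10 μM). K562 and Ba/F3-T315I (1×10^4/well) were given 9-point series (3-fold and 5-fold respectively), final 0-10 μM. After 72 h at 37°C, CCK-8 was added for 2 h; blank-subtracted OD450 gave IC50.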

K562 = experiment: as above; format: cell-based; settings: Homo sapiens, K562, 72 h
In short: as §2

T315I (Ba/F3) = target: T1, T315I (Ba/F3) (Homo sapiens, UniProt P00519, T315I, cells depend on it); experiment: as above; format: cell-based; settings: read-out: T315I (Ba/F3) IC50
T1 construct: fused on or other part: P11274 (Breakpoint cluster region protein)
In short: as §2

MDA-MB-231 = experiment: Real time cell proliferation, IncuCyte ZOOM, 72 hours; format: cell-based; settings: Homo sapiens, MDA-MB-231, 72 h
[1] = target: T2, scanMAX Kinase assay panel (Homo sapiens, UniProt Q9Y3S1); experiment: Kinase selectivity, scanMAX Kinase assay panel (DiscoverX), % control at 1 uM; format: binding; settings: WNK2; 1 uM; read-out: Percent Control (%)
T2 construct: purchased DiscoverX
T2 sequence (Q9Y3S1 whole entry): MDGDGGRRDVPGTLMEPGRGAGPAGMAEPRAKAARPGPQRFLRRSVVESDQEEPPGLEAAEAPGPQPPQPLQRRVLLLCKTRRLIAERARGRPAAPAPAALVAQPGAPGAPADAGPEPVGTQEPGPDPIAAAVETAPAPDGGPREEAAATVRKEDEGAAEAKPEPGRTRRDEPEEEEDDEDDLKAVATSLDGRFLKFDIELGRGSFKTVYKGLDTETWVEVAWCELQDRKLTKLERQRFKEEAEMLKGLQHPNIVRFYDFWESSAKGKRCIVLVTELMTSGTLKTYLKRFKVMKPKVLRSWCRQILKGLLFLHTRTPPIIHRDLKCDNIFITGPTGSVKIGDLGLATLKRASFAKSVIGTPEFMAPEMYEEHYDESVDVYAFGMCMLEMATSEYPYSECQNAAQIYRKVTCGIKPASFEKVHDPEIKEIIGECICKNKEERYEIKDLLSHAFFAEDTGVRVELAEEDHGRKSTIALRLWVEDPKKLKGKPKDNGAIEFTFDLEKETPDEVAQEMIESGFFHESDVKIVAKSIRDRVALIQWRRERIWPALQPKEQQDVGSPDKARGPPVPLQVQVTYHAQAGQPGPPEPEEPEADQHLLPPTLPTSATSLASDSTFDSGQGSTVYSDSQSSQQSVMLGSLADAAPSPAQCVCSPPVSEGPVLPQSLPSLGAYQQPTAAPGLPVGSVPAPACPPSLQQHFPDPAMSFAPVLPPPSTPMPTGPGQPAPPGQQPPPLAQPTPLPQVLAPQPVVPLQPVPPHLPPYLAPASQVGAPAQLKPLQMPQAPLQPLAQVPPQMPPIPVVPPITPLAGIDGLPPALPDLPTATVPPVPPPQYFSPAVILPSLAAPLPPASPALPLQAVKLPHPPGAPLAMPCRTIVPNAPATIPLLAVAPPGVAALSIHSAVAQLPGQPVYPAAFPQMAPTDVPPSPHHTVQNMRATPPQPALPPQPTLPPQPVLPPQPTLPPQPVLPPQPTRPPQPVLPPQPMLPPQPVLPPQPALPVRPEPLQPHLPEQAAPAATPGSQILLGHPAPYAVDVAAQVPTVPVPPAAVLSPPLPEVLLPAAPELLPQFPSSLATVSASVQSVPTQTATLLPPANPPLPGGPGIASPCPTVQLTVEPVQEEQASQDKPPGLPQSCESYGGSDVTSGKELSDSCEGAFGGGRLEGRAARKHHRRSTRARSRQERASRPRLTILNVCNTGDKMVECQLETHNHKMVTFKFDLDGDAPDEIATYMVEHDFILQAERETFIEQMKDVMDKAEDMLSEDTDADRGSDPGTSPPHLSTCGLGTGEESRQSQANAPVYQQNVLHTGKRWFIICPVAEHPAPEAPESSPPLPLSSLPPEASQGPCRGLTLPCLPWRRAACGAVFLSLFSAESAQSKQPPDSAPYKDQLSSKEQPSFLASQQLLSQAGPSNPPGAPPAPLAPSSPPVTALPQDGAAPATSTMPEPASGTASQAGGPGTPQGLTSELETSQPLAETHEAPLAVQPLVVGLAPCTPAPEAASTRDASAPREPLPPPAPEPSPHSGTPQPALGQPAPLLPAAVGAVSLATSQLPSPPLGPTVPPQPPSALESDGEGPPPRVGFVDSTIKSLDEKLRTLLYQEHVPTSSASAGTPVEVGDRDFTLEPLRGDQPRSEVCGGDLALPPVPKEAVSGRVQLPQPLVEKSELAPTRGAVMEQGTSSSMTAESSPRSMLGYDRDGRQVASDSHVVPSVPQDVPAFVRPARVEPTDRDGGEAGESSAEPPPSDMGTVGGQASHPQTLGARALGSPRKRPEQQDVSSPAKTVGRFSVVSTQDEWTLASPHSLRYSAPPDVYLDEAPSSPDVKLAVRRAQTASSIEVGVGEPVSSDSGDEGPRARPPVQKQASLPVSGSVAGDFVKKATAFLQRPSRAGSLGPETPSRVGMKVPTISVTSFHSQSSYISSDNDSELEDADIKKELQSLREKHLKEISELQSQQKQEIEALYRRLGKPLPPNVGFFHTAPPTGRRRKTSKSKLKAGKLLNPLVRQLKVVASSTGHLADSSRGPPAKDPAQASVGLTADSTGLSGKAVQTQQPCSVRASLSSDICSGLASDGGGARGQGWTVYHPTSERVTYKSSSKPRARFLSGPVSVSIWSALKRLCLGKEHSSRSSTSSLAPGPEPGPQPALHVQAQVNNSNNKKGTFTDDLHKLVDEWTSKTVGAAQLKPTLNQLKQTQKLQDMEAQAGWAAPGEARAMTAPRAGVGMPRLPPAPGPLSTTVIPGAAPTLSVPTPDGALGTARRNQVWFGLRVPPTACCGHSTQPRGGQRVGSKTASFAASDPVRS
Protocol: (§3) The following experiment was performed to evaluate the inhibitory activity of the compound of the present invention on more enzymes.
(§4) Particularly, among the compounds of the present invention, the compounds of Example 1, Example 12 and Example 78 were selected and assigned to DiscoverX to measure the kinase selectivity. The experiment was performed by using scanMAX™ Kinase assay panel.
(§5) At this time, the concentration of the drug to be treated to the enzyme was adjusted to 1 uM in DMSO, and the control percentage (% control) was determined according to the following Equation 1. [Example Compound−Positive Control/Negative Control−Positive Control]×100 [Equation 1]
(§6) The enzyme selectivity of the compound of the present invention was judged to be active for the enzyme if the % control was <35 (i.e. less than 35%) for each enzyme.

[2] = target: T3, scanMAX Kinase assay panel (Homo sapiens, UniProt Q8IU85); experiment: as above; format: binding; settings: CAMK1D; 1 uM; read-out: Percent Control (%)
T3 construct: purchased DiscoverX
T3 sequence (Q8IU85 whole entry): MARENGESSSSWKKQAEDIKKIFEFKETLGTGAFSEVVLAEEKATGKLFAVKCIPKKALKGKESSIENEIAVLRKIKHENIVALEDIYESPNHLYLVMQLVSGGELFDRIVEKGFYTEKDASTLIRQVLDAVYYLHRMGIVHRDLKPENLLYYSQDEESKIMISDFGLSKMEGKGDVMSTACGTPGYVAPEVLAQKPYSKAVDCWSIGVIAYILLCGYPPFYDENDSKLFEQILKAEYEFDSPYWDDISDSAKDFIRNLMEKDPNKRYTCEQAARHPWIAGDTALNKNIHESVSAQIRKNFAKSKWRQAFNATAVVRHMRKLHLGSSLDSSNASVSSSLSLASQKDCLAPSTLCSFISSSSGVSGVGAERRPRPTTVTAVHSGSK
Protocol: as §3, §4, §5, §6

| SMILES | IC50 (GIST-T1/816) | IC50 (GIST430) | IC50 (GIST430/654) | IC50 (GIST-T1) | IC50 (A375) | IC50 (K562) | GI50 (T315I (Ba/F3)) | IC50 (MDA-MB-231) | remaining binding at 1 µM [1] | remaining binding at 1 µM [2] |
| --- | --- | --- | --- | --- | --- | --- | --- | --- | --- | --- |
| Cc1ccc(C(=O)Nc2cccc(C(F)(F)F)c2)cc1C#Cc1cnc2c(Nc3cnn(C4CCNCC4)c3)cccn12 [Example 11, 4-methyl-3-((8-((1-(piperidin-4-yl)-1H-pyrazol-4-yl)amino)imidazo[1,2-a]pyridin-3-yl)ethynyl)-N-(3-(trifluoromethyl)phenyl)benzamide] | 40.7 nM | 63.6 nM | 560 nM | 0.8 nM | 1250 nM | < 1 nM | 6.34 nM | 679 nM |  |  |
| Cc1ccc(NC(=O)C2(C(=O)Nc3ccc(F)cc3)CC2)cc1C#Cc1cnc2c(Nc3cnn(C(C)C)c3)cccn12 [Example 78] |  |  |  |  | 4600 nM | 1200 nM | 3240 nM | 8780 nM | 100% | 98% |
| CCN1CCN(Cc2ccc(NC(=O)c3ccc(C)c(C#Cc4cnc5c(Nc6cnn(C)c6)cccn45)c3)cc2C(F)(F)F)CC1 [Example 8, N-(4-((4-ethylpiperazin-1-yl)methyl)-3-(trifluoromethyl)phenyl)-4-methyl-3-((8-((1-methyl-1H-pyrazol-4-yl)amino)imidazo[1,2-a]pyridin-3-yl)ethynyl)benzamide] |  |  |  |  | 52 nM | < 1 nM | 32 nM | 96 nM |  |  |
| Cc1cn(-c2cc(NC(=O)c3ccc(C)c(C#Cc4cnc5c(Nc6cnn(C)c6)cccn45)c3)cc(C(F)(F)F)c2)cn1 [Example 12, 4-methyl-N-(3-(4-methyl-1H-imidazol-1-yl)-5-(trifluoromethyl)phenyl)-3-((8-((1-methyl-1H-pyrazol-4-yl)amino)imidazo[1,2-a]pyridin-3-yl)ethynyl)benzamide] | 308 nM | 56.3 nM | 564 nM | 12.3 nM | 942 nM | < 1 nM | 6.72 nM | 1190 nM | 100% | 82% |
| Cc1ccc(C(=O)Nc2ccc(CN3CCN(C)CC3)c(C(F)(F)F)c2)cc1C#Cc1cnc2c(Nc3cnn(C)c3)cccn12 [Example 1, 4-methyl-3-((8-((1-methyl-1H-pyrazol-4-yl)amino)imidazo[1,2-a]pyridin-3-yl)ethynyl)-N-(4-((4-methylpiperazin-1-yl)methyl)-3-(trifluoromethyl)phenyl)benzamide] | 35.4 nM | 36.8 nM | 332 nM | 1.9 nM | 26 nM | < 1 nM | 26 nM | 187 nM | 82% | 65% |
